Measurements reported in patent US10704076B2, “Multi-tiered high through-put screen for compounds effective against bacterial biofilm and compounds effective for inhibiting and eradicating bacterial biofilm” (University of Cincinnati, priority 2013, dated 2020).
Entries after “also recorded” stand apart in the source; their conditions may differ.

What was measured:
[1] = test system: A. baumannii biofilm; experiment: HTS live biofilm assay (resazurin metabolic activity); type: cell-based, Acinetobacter baumannii; settings: Acinetobacter baumannii, 10 point dose-response 0.1-50 μM
Description: (§1) Each HTS tier consisted of: (i) primary screening, (ii) confirmation screening and (iii) dose-response curve screening. Each tier of HTS included three distinct biological process assays. The first assay was an optical density measurement of bacteria growth in the presence of each compound reported as a total bacteria growth. In the second assay, resazurin solution was used as an indicator of metabolic activity to measure the live bacteria in the biofilms, reported as live biofilm. The final assay was crystal violet staining, which indicated the amount of biofilm formation and the effect of each compound on this process, reported as total biofilm formation.
(§2) Briefly, stationary phase bacteria grown in L-broth were diluted 1:200 into fresh L-broth and 50 μM of each test compound. After 20-24 hours, the optical density (OD560) of each suspension was measured using Zeiss Plate::Vision with a 560 BP filter (560 nm, 2.5% light intensity, 1 mm focus to bottom of plate, and exposure time of 100 ms). To measure bacterial viability in the biofilm, 50 μl of a 5 mg/ml resazurin solution in L-broth was added to each well after washing 3 times with 50 μl of PBS. The plates were then incubated at 37° C. for 30 or 180 min for A. baumannii and P. aeruginosa biofilms, respectively. Fluorescence was measured using Zeiss Plate::Vision at excitation and emission wavelengths of 535 and 580 nm, 100 ms exposure time, 2.5% intensity and a 2 mm focus to the bottom of the biofilms. To assess biofilm formation, plates were washed 3 times with PBS and then 50 μl of 0.01% of crystal violet was added to each well to assess bacterial biofilm formation as described in a similar borosilicate tube assay by O'Toole and Kolter. After incubation at room temperature for 30 min and removal of the crystal violet solution by washing with PBS, 95% ethanol was added to solubilize the crystal violet followed by incubation for 20 min at room temperature. Finally, the optical density of each plate was determined using measured by Zeiss Plate::Vision using the same settings used to measure total bacterial growth. These 3 steps were used in each of the three tiers for the HTS process: (i) single point primary screening at 10 μM, (ii) triplicate confirmation of hits from (i) at 10 μM and (iii) determination of AC50 values in 10 point dose-response at a concentration range of 0.1-50 μM) in hits from (ii). The AC50 represents the concentration of compound that inhibits 50% of bacterial growth, bacterial viability, or biofilm formation. Genedata Screener® Assay Analyzer Software (Ver. 9.0.0 Standard) was used to analyze data from all assay tiers. Compounds with an AC50 of less than 20 μM in one of the biological assays from the dose response screen were subject to additional investigation.

[2] = test system: A. baumannii biofilm; experiment: HTS total biofilm formation assay (crystal violet staining); type: cell-based, Acinetobacter baumannii; settings: Acinetobacter baumannii, 10 point dose-response 0.1-50 μM
Description: as §1, §2

[3] = test system: A. baumannii established biofilm; experiment: CLSM, effect of compound on the pre-existing biofilm; type: cell-based, Acinetobacter baumannii; settings: 24 hr; for killing of established A. baumannii biofilm (CLSM, in words): 300 μM; for Effect of compound on the pre-existing biofilm: Killing: Y / —
Method: (§3) Broad spectrum agents (effective against all three bacterial species) and single agent compounds identified as HTS hits were investigated with CLSM confirmation of inhibition of biofilm formation (culture of bacteria with compounds) or killing of bacteria residing within an established biofilm (compound addition after culturing biofilm). To evaluate inhibition of P. aeruginosa biofilms, bacteria were sub-cultured into 10% L-broth and grown at 37° C. until the OD600 reached 0.25. The bacteria were further diluted 1:100 into a modified 0.5×M63 minimum media (50 mM KH2PO4, 7.5 mM (NH4)2SO4, 9 μM FeSO4, 0.5% casamino acids, 0.2% glucose, and 1 mM MgSO4). A. baumannii biofilms were also grown in 10% L-broth until the OD600 reached 0.05 but diluted 1:10 into 5% L-broth media. S. epidermidis biofilm cultures were grown. Briefly, the bacteria were grown in TSB until the OD600 reached 0.75, and a 1:100 dilution of the bacteria was sub-cultured into phosphate buffered saline (PBS). All of the biofilm bacterial cultures were grown in 96-well plate chambers (MatTek Corp., Ashland, Mass.) in the presence of 10 μM of each compound or DMSO as a control and incubated for 18 hrs at 37° C. To investigate the ability of compounds to kill bacteria within pre-existing biofilms, biofilms were grown under the same conditions, but without test compound. These biofilms were washed once with PBS and incubated an additional 24 hr at 37° C. in PBS containing 300 μM of each compound. All biofilm cultures were then washed twice with 100 μL of PBS and stained using the LIVE/DEAD® BacLight™ Bacterial Viability Kit (Invitrogen). Finally, biofilm images were obtained using a Zeiss LSM510 META Confocal Microscope (Carl Zeiss, Inc., Germany). A 488 nm laser was used in conjunction with a Plan-Apochromat 100×/1.4 Oil DIC objective. Z-stacks were 8 bit and measured 127.3 μm×127.3 μm×16.0 μm in size. The filters used were 505-530 and 620-680 IR, as the excitation and emission wavelengths for red fluorescence are 490 nm and 635 nm, respectively, and 480 nm and 500 nm for green fluorescence. Three dimensional images were generated using the “Projection” ability on LSM Image Browser software (v.1.4.0.121) or Zeiss LSM image browser software version 3.5 (Carl Zeiss, Inc., Germany), and Live/Dead calculations were conducted based upon these images using MacBiophotonics ImageJ following the guidelines in the cell counting guide by C. Labno {Rasband, 1997-2011 #25; Labno, #2} at the University of Chicago Integrated Light Microscopy Core. The thickness of the biofilm was calculated using Comstat software. A hit was defined as a >50% dead to live ratio.
(§4) The CLSM experiment was performed in one or two or all bacteria used in this study depending on its activity. For the validation of HTS hits, 10 μM of compound was added to each bacterial suspension and the resulting biofilm stained with LIVE/DEAD® BacLight™ Bacterial Viability Kit. The images were analyzed to determine the live and dead ratios of biofilm bacteria, the thickness of biofilms, and structural attributes of biofilms.

[4] = test system: A. baumannii; experiment: HTS total bacterial growth assay (optical density OD560); type: cell-based, Acinetobacter baumannii; settings: 10 point dose-response 0.1-50 μM, NS* = no sigmoid curve observed; for AC50: Acinetobacter baumannii, read-out: Total Bacteria Growth AC50
Description: as §1, §2

[5] = test system: P. aeruginosa biofilm; experiment: CLSM, co-culture of bacteria with compound (inhibition of biofilm formation); type: cell-based, Pseudomonas aeruginosa
Method: as §3, §4

[6] = test system: P. aeruginosa biofilm; experiment: HTS total biofilm formation assay (crystal violet staining); type: cell-based, Pseudomonas aeruginosa; settings: Pseudomonas aeruginosa, 10 point dose-response 0.1-50 μM
Description: as §1, §2

[7] = test system: P. aeruginosa biofilm; experiment: HTS live biofilm assay (resazurin metabolic activity); type: cell-based; settings: Pseudomonas aeruginosa, 10 point dose-response 0.1-50 μM
Description: as §1, §2

[8] = test system: P. aeruginosa; experiment: HTS total bacterial growth assay (optical density OD560); type: cell-based, Pseudomonas aeruginosa; settings: Pseudomonas aeruginosa, 10 point dose-response 0.1-50 μM, read-out: Total Bacteria Growth AC50
Description: as §1, §2

[9] = test system: A. baumannii biofilm; experiment: CLSM, co-culture of bacteria with compound (inhibition of biofilm formation); type: cell-based, Acinetobacter baumannii; settings: for killing of residential bacteria, co-culture (CLSM, in words): 10 μM; for Co-culture of bacteria with compound: Killing: CLSM, 10 μM compound, 18 hrs, Y / —
Method: as §3, §4

Compound	AC50 [1]	AC50 [2]	killing of established A. baumannii biofilm (CLSM, in words) [3]	Effect of compound on the pre-existing biofilm: Killing ([3]; CLSM, 300 μM compound)	AC50 [4]	Total Bacteria Growth AC50 [4]	also measured
Oc1ccc2c(c1O)O[C@@]13NC(=S)N[C@@H](c4ccccc4)[C@H]1CCC[C@H]3[C@H]2c1ccccc1 (relative stereo) [Compound 24, (4R,4aR,7aS,8S,13aR)-rel-3,4,4a,5,6,7,7a,8-octahydro-11,12-dihydroxy-4,8-diphenyl-[1]Benzopyrano[3,2-i]quinazoline-2(1H)-thione]	1.13 µM	3.75 µM	demonstrated killing of established biofilm culture; also recorded: effective against biofilm resident A. baumannii	Y (A hit was defined as a >50% dead to live ratio)	> 200 µM	–	–
O=C(O)c1cn(-c2ccc(F)cc2F)c2nc(N3CCC(O)CC3)c(F)cc2c1=O [Compound 14, 1-(2,4-difluorophenyl)-6-fluoro-1,4-dihydro-4-oxo-7-(4-hydroxy-1-piperidinyl)-1,8-Naphthyridine-3-carboxylic acid]	–	–	–	–	–	–	killing of residential bacteria, co-culture (CLSM, in words) ([5]; 10 μM): lethal to residential bacteria; Co-culture of bacteria with compound: Killing ([5]; CLSM, 10 μM compound, 18 hrs, Y / —): Y (A hit was defined as a >50% dead to live ratio); AC50 [6]: 13 µM; AC50 [7]: 80.1 µM; AC50 [8]: 13.6 µM
O/N=C1/C=Cc2[nH]c(-c3ccccc3)cc2/C1=N/O [Compound 18, N-(4-nitroso-2-phenyl-1H-indol-5-yl)hydroxylamine]	4.53 µM	14.6 µM	demonstrated killing of established biofilm culture; also recorded: effective against biofilm resident A. baumannii	Y (A hit was defined as a >50% dead to live ratio)	17.7 µM	–	killing of residential bacteria, co-culture (CLSM, in words) [9]: effective in killing the bacterium; Co-culture of bacteria with compound: Killing [9]: Y (A hit was defined as a >50% dead to live ratio)
Nc1nonc1-c1nc2ccccc2n1CC(=O)N/N=C/c1cc(Br)cc(Br)c1O [Compound 21, 2-[2-(4-amino-1,2,5-oxadiazol-3-yl)-1H-benzimidazol-1-yl]-N′-[(E)-(3,5-dibromo-2-hydroxyphenyl)methylidene]acetohydrazide]	9.86 µM	14.6 µM	–	–	–	NS*	–
O=C(N/N=C/c1cc(Br)c(O)cc1O)c1cc2c(ccc3ccccc32)o1 [Compound 23, N′-[(E)-(5-Bromo-2,4-dihydroxyphenyl)methylene]naphtho[2,1-b]furan-2-carbohydrazide]	8.97 µM	17.5 µM	–	–	> 200 µM	–	–
CCCCC(C(=O)N/N=C/c1cc(Br)ccc1O)C(=O)N/N=C/c1cc(Br)ccc1O [Compound 25, N′1,N′3-Bis [(E)-(5-bromo-2-hydroxyphenyl)methylene]-2-butylmalonohydrazide]	1.26 µM	5.11 µM	–	–	> 200 µM	–	–
Cc1n[nH]c(O)c1C(c1cccc(OCc2ccc(Cl)c(Cl)c2)c1)c1c(C)n[nH]c1O [Compound 26, 4-[{3-[(3,4-dichlorobenzyl)oxy]phenyl}(5-hydroxy-3-methyl-1H-pyrazol-4-yl)methyl]-3-methyl-1H-pyrazol-5-ol]	8.07 µM	7.6 µM	demonstrated killing of established biofilm culture; also recorded: effective against biofilm resident A. baumannii	Y (A hit was defined as a >50% dead to live ratio)	–	NS*	–
Oc1c(Cl)cc(Cl)c(Cl)c1-c1nc2ccccc2[nH]1 [Compound 29, 2-(1H-benzoimidazol-2-YL)-3,4,6 Trichlrophenol]	> 200 µM	8.37 µM	–	–	–	NS*	–
CCCCOC(=O)C(=O)CC(=O)/C=C/c1ccccc1 [Compound 30, Butyl (E)-2,4-dioxo-6-phenylhex-5-enoate]	2.35 µM	8.54 µM	–	–	–	NS*	–
Oc1c(I)cc(I)cc1/C=N/c1ccc2[nH]c(-c3ccccc3)nc2c1 [Compound 31]	17.4 µM	23.5 µM	demonstrated killing of established biofilm culture; also recorded: demonstrated ability in killing; also recorded: effective against biofilm resident A. baumannii	Y (A hit was defined as a >50% dead to live ratio)	> 200 µM	–	Effect of compound on the pre-existing biofilm: Dispersion ([3]; CLSM, 300 μM compound): did demonstrate dispersion activity; killing of residential bacteria, co-culture (CLSM, in words) [9]: effective in killing the bacterium; Co-culture of bacteria with compound: Killing [9]: Y (A hit was defined as a >50% dead to live ratio)
O=C(N/N=C/c1ccc(O)cc1O)c1cc(-c2ccccc2)nc2ccccc12 [Compound 33, N′-(2,4-dihydroxybenzylidene)-2-phenylquinoline-4-carbohydrazide]	7.28 µM	17.2 µM	–	–	> 200 µM	–	–
C=CCSC1=NC(C)(C)CC2(CC(c3ccccc3)c3ccc(O)c(O)c3O2)N1 (stereo not drawn) [Compound 34, 3,4,5′,6′-tetrahydro-6′,6′-dimethyl-4-phenyl-2′-(2-propen-1-ylthio)-spiro[2H-1-benzopyran-2,4′(3′H)-pyrimidine]-7,8-diol]	–	–	effective against biofilm resident A. baumannii	–	–	–	killing of residential bacteria, co-culture (CLSM, in words) [9]: effective in killing the bacterium
N-2-(4-methoxybenzothiazolyl)-2,3-dihydro-4-Methyl-5-oxo-1H,5HBenzo[ij]quinolizine-6-carboxamide [Compound 28]	–	–	effective against biofilm resident A. baumannii	–	–	–	–
